Literature values in article PMC5962642, “Dynamic imaging of adaptive stress response pathway activation for prediction of drug induced liver injury” (Archives of Toxicology, 2018).

How the values were obtained:
[1] = C-max obtained from FDA or literature; ref per compound (FDA, Dailymed, Xu, O’Brien, Khetani, Regenthal, Gustafsson, Dawson, Ogutu, Patel, Schmidt, Ravic, Keisu, Hu, Wagner); cited from earlier work
[2] = ref Chen et al. [2016], cited from earlier work; for DILI con. (DILI-concern labeling): FDA DILI labeling; for Hepa. (hepatotoxicity class): FDA labeling in eight classes of hepatotoxicity

Row | Compound | Cmax [1] | DILI con. (DILI-concern labeling) [2] | Hepa. (hepatotoxicity class) [2]
1 | CN(C)c1nc(N(C)C)nc(N(C)C)n1 [Altretamine] | 3760 nM | Amb.-DC | –
2 | CC1(C)S[C@@H]2[C@H](NC(=O)[C@H](N)c3ccc(O)cc3)C(=O)N2[C@H]1C(=O)O [Amoxicillin] | 22300 nM | Less-DC | 5
3 | O=C1CC2(CCCC2)CC(=O)N1CCCCN1CCN(c2ncccn2)CC1 [Buspirone] | 16 nM | Amb.-DC | –
4 | CS(=O)(=O)OCCCCOS(C)(=O)=O [Busulfan] | 277 nM | Most-DC | 8
5 | C[C@H](CS)C(=O)N1CCC[C@H]1C(=O)O [Captopril] | 8880 nM | – | 7
6 | NC(=O)N1c2ccccc2C=Cc2ccccc21 [Carbamazepine] | 50800 nM | Most-DC | 7
7 | O=C(N[C@H](CO)[C@H](O)c1ccc([N+](=O)[O-])cc1)C(Cl)Cl [Chloramphenicol] | 46400 nM | – | –
8 | CCCNC(=O)NS(=O)(=O)c1ccc(Cl)cc1 [Chlorpropamide] | 130000 nM | Less-DC | 2
9 | Clc1ccccc1C(c1ccccc1)(c1ccccc1)n1ccnc1 [Clotrimazole] | 87 nM | Less-DC | 3
10 | CN(C)/N=N/c1[nH]cnc1C(N)=O [Dacarbazine] | 20600 nM | Most-DC | 6
11 | C#C[C@]1(O)CC[C@H]2[C@@H]3CCC4=Cc5oncc5C[C@]4(C)[C@H]3CC[C@@]21C [Danazol] | 109 nM | – | 8
12 | C[C@@H]1C[C@H]2[C@@H]3CCC4=CC(=O)C=C[C@]4(C)[C@@]3(F)[C@@H](O)C[C@]2(C)[C@@]1(O)C(=O)CO [Dexamethasone] | 224 nM | Amb.-DC | 3
13 | O=c1[nH]cnc2c1ncn2[C@H]1CC[C@@H](CO)O1 [Didanosine] | 9830 nM | – | 8
14 | C[C@H]1O[C@@H](O[C@H]2[C@@H](O)C[C@H](O[C@H]3[C@@H](O)C[C@H](O[C@H]4CC[C@@]5(C)[C@H](CC[C@@H]6[C@@H]5C[C@@H](O)[C@]5(C)[C@@H](C7=CC(=O)OC7)CC[C@]65O)C4)O[C@@H]3C)O[C@@H]2C)C[C@H](O)[C@@H]1O [Digoxin] | 3 nM | – | 1
15 | COc1ccc([C@@H]2Sc3ccccc3N(CCN(C)C)C(=O)[C@@H]2OC(C)=O)cc1 [Diltiazem] | 356 nM | – | –
16 | CCN(CC)C(=S)SSC(=S)N(CC)CC [Disulfiram] | 5400 nM | – | –
17 | CNC[C@H](O)c1ccc(O)c(O)c1 [Epinephrine] | 2 nM | No-DC | 1
18 | CC[C@H]1OC(=O)[C@H](C)[C@@H](O[C@H]2C[C@@](C)(OC)[C@@H](O)[C@H](C)O2)[C@H](C)[C@@H](O[C@@H]2O[C@H](C)C[C@H](N(C)C)[C@H]2O)[C@](C)(O)C[C@@H](C)C(=O)[C@H](C)[C@@H](O)[C@]1(C)O [Erythromycin] | 11000 nM | – | –
19 | CC[C@@H](CO)NCCN[C@@H](CC)CO [Ethambutol] | 24500 nM | Most-DC | 8
20 | CCc1cccc2c3c([nH]c12)C(CC)(CC(=O)O)OCC3 (stereo not drawn) [Etodolac] | 68500 nM | Most-DC | 8
21 | CC(C)OC(=O)C(C)(C)Oc1ccc(C(=O)c2ccc(Cl)cc2)cc1 [Fenofibrate] | 4100 nM | – | 3
22 | O=c1[nH]c(=O)n([C@@H]2O[C@H](CO)[C@@H](O)[C@@H]2F)cc1I [Fialuridine] | 1000 nM | Most-DC | 8
23 | CNCCC(Oc1ccc(C(F)(F)F)cc1)c1ccccc1 (stereo not drawn) [Fluoxetine] | – | – | 3

Row | Compound | Cmax [1] | DILI con. (DILI-concern labeling) [2] | Hepa. (hepatotoxicity class) [2]
24 | Nc1nc2ncc(CNc3ccc(C(=O)N[C@@H](CCC(=O)O)C(=O)O)cc3)nc2c(=O)[nH]1 [Folic acid] | 43 nM | – | 1
25 | Nc1nc(O)c2ncn(COC(CO)CO)c2n1 [Ganciclovir] | 4620 nM | – | 7
26 | CCC1=C(C)CN(C(=O)NCCc2ccc(S(=O)(=O)NC(=O)N[C@H]3CC[C@H](C)CC3)cc2)C1=O [Glimepiride] | 1120 nM | Less-DC | 7
27 | OCCOCCN1CCN(C(c2ccccc2)c2ccc(Cl)cc2)CC1 (stereo not drawn) [Hydroxyzine] | 270 nM | No-DC | 1
28 | COc1ccc2c(c1)c(CC(=O)O)c(C)n2C(=O)c1ccc(Cl)cc1 [Indomethacin] | 5590 nM | – | –
29 | CC(C)NCC(O)c1ccc(O)c(O)c1 (stereo not drawn) [Isoproterenol] | 2020 nM | No-DC | 1
30 | O=C(c1ccccc1)c1ccc2n1CCC2C(=O)O (stereo not drawn) [Ketorolac] | 3530 nM | Less-DC | 3
31 | CC(CCc1ccccc1)NCC(O)c1ccc(O)c(C(N)=O)c1 (stereo not drawn) [Labetalol] | 2680 nM | Most-DC | 8
32 | CNCCCC12CCC(c3ccccc31)c1ccccc12 [Maprotiline] | 180 nM | Amb.-DC | 5
33 | COC(=O)Nc1nc2ccc(C(=O)c3ccccc3)cc2[nH]1 [Mebendazole] | 130 nM | – | 3
34 | Cc1cccc(CN2CCN(C(c3ccccc3)c3ccc(Cl)cc3)CC2)c1 (stereo not drawn) [Meclizine] | – | No-DC | 1
35 | Cn1cc[nH]c1=S [Methimazole] | 2620 nM | – | –
36 | CN(Cc1cnc2nc(N)nc(N)c2n1)c1ccc(C(=O)N[C@@H](CCC(=O)O)C(=O)O)cc1 [Methotrexate] | 770 nM | Most-DC | 3
37 | COCCc1ccc(OCC(O)CNC(C)C)cc1 (stereo not drawn) [Metoprolol] | 560 nM | – | –
38 | CC(=O)Oc1cc(C(C)C)c(OCCN(C)C)cc1C [Moxisylyte] | 160 nM | – | 8
39 | CC1COc2c(N3CCN(C)CC3)c(F)cc3c(=O)c(C(=O)O)cn1c23 (stereo not drawn) [Ofloxacin] | 9960 nM | – | 3
40 | C1CCC(C(CC2CCCCN2)C2CCCCC2)CC1 (stereo not drawn) [Perhexiline] | – | Most-DC | 8
41 | C[C@]12C=CC(=O)C=C1CC[C@@H]1[C@@H]2[C@@H](O)C[C@@]2(C)[C@H]1CC[C@]2(O)C(=O)CO [Prednisolone] | 680 nM | Less-DC | 3
42 | CCCc1cc(=O)[nH]c(=S)[nH]1 [Propylthiouracil] | 9100 nM | – | 8
43 | Clc1ccccc1CN1CCc2sccc2C1 [Ticlopidine] | 8070 nM | – | –
44 | CCCCNC(=O)NS(=O)(=O)c1ccc(C)cc1 [Tolbutamide] | 233000 nM | – | –
45 | CC(=O)CC(c1ccccc1)c1c(O)c2ccccc2oc1=O (stereo not drawn) [Warfarin] | 4860 nM | – | –
46 | CCOC(=O)CN[C@@H](C(=O)N1CC[C@H]1C(=O)NCc1ccc(/C(N)=N\O)cc1)C1CCCCC1 [Ximelagatran] | 300 nM | – | –
